Source: publication PMC5458626 (American heart journal, 2017)
“Also recorded” adds a separate entry of the source.

How the values were obtained:
[1] = system: Phosphodiesterase Type 5 (PDE5); settings: major circulating metabolite; ref [15]–[17]; cited from earlier work
[2] = Plasma pharmacokinetics of udenafil and DA-8164; settings: for DA-8164 Cmax: plasma metabolite
Adverse events = type: in vivo, human
Exercise stress test = type: in vivo, human; settings: for Maximal VO2 at maximum exercise effort, follow-up measurement / VO2 at anaerobic threshold, follow-up measurement: day 5, mean ± SD
[3] = Echocardiography: myocardial performance index; type: in vivo, human; settings: for Blood pool MPI, follow-up measurement / Tissue Doppler MPI, follow-up measurement: day 5; for Blood pool MPI, difference FU – BL: day 5 minus baseline (negative = improvement)
[4] = Vascular function by peripheral arterial tonometry; type: in vivo, human; settings: for Augmentation Index adjusted to HR 75, follow-up measurement / Natural log of Reactive Hyperemic Index, follow-up measurement: day 5; for Natural log of Reactive Hyperemic Index, difference FU – BL: day 5 minus baseline (positive = improvement)
[5] = adult males, oral administration; ref [15]–[17]; cited from earlier work
[6] = metabolite, oral udenafil 37.5 mg bid for five days, mean (%CV), N=6
[7] = metabolite, oral udenafil 37.5 mg daily for five days, mean (%CV), N=6
[8] = metabolite, oral udenafil 125 mg daily for five days, mean (%CV), N=6
[9] = once-daily dosing, dose increased 3.3 times
[10] = oral udenafil 37.5 mg bid for five days, mean (%CV), N=6
[11] = oral udenafil 37.5 mg daily for five days, mean (%CV), N=6
[12] = oral udenafil 125 mg daily for five days, mean (%CV), N=6
[13] = twice-daily dosing, dose increased 2.3 times
[14] = total udenafil, all cohorts, N=30
[15] = udenafil 37.5 mg daily, 5 days, N=6
[16] = udenafil 37.5 mg twice daily, 5 days, N=6
[17] = udenafil 125 mg daily, 5 days, N=6
[18] = once-daily dosing, dose increased 3.3 times (37.5 to 125 mg)

Structure (SMILES): CCCOc1ccc(S(N)(=O)=O)cc1-c1nc2c(CCC)nn(C)c2c(=O)[nH]1 [DA-8164]
- Potency of DA-8164 relative to udenafil [1]: equipotent
- DA-8164 T½ (harmonic mean half-life, 0.693/mean kel) ([2]; metabolite, oral udenafil 37.5 mg bid for five days, N=6): 14.1 h
- DA-8164 Cavg (AUC0−τ/τ) [2, 6]: 108 (55) ng/mL
- DA-8164 Tmax [2, 6]: 2.1 (78) h
- DA-8164 kel [2, 6]: 0.0491 (16) h
- DA-8164 AUC0−τ ([2]; metabolite, oral udenafil 37.5 mg bid for five days, τ = 12 hours, mean (%CV), N=6): 1290 (55) ng*h/mL
- DA-8164 T½ (harmonic mean half-life, 0.693/mean kel) ([2]; metabolite, oral udenafil 37.5 mg daily for five days, N=6): 14.6 h
- DA-8164 Cavg (AUC0−τ/τ) [2, 7]: 36.7 (43) ng/mL
- DA-8164 Tmax [2, 7]: 3.1 (51) h
- DA-8164 kel [2, 7]: 0.0474 (34) h
- DA-8164 T½ (harmonic mean half-life, 0.693/mean kel) ([2]; metabolite, oral udenafil 125 mg daily for five days, N=6): 14.5 h
- DA-8164 Cavg (AUC0−τ/τ) [2, 8]: 145 (14) ng/mL
- DA-8164 Tmax [2, 8]: 3.8 (35) h
- DA-8164 kel [2, 8]: 0.0480 (17) h
- Fold increase of mean DA-8164 AUC0−τ with udenafil dose [2, 9]: 4 fold
- Fold increase of mean DA-8164 Cmax with udenafil dose [2, 9]: 4.2 fold
- DA-8164 Cmax [2, 10]: 159 (52) ng/mL
- DA-8164 Cmax [2, 11]: 61.3 (46) ng/mL
- DA-8164 Cmax [2, 12]: 256 (13) ng/mL
- Fold increase of mean DA-8164 AUC0−τ with udenafil dose [2, 13]: 1.9 fold
- Fold increase of mean DA-8164 Cmax with udenafil dose [2, 13]: 1.8 fold

Structure (SMILES): CCCOc1ccc(S(=O)(=O)NCCC2CCCN2C)cc1-c1nc2c(CCC)nn(C)c2c(=O)[nH]1 (stereo not shown) [udenafil]
- Subjects with facial flushing possibly or probably related to study medication (Adverse events; 30 subjects, all cohorts): 33%
- Subjects with nasal congestion possibly or probably related to study medication (Adverse events; 30 subjects, all cohorts): 20%
- Subjects with nausea possibly or probably related to study medication (Adverse events; 30 subjects, all cohorts): 10%
- Dose dependence of reported AEs (Adverse events; across the five dosing cohorts): did not increase with increasing dose
- Subjects with headache (most common AE) (Adverse events; of 30 subjects exposed to udenafil, all cohorts): 19 subjects
- Subjects with headache possibly or probably related to study drug (Adverse events; of the 30 subjects, all cohorts): 63%
- Drug-related serious adverse events (Adverse events; study period, all dosing cohorts): No drug-related serious AEs; also recorded: no drug-related serious adverse events were reported
- Subjects who experienced drug-related (probably or possibly) adverse events: Headache (Adverse events; [14]): 19 (63) n (%)
- Subjects who experienced drug-related adverse events: Abdominal discomfort (Adverse events; [14]): 2 (7) n (%)
- Subjects who experienced drug-related adverse events: Back pain (Adverse events; [14]): 1 (3) n (%)
- Subjects who experienced drug-related adverse events: Flushing (Adverse events; [14]): 10 (33) n (%)
- Subjects who experienced drug-related adverse events: Nasal congestion (Adverse events; [14]): 6 (20) n (%)
- Subjects who experienced drug-related adverse events: Nausea (Adverse events; [14]): 3 (10) n (%)
- Subjects who experienced drug-related (probably or possibly) adverse events: Headache (Adverse events; [15]): 3 (50) n (%)
- Subjects who experienced drug-related adverse events: Abdominal discomfort (Adverse events; [15]): 0 (0) n (%)
- Subjects who experienced drug-related adverse events: Back pain (Adverse events; [15]): 0 (0) n (%)
- Subjects who experienced drug-related adverse events: Flushing (Adverse events; [15]): 1 (17) n (%)
- Subjects who experienced drug-related adverse events: Nasal congestion (Adverse events; [15]): 1 (17) n (%)
- Subjects who experienced drug-related adverse events: Nausea (Adverse events; [15]): 1 (17) n (%)
- Subjects who experienced drug-related adverse events: Spontaneous penile erection (Adverse events; udenafil 37.5 mg daily, 5 days, N=6, male subjects only): 0 (0) n (%)
- Subjects who experienced drug-related (probably or possibly) adverse events: Headache (Adverse events; [16]): 4 (67) n (%)
- Subjects who experienced drug-related adverse events: Abdominal discomfort (Adverse events; [16]): 0 (0) n (%)
- Subjects who experienced drug-related adverse events: Back pain (Adverse events; [16]): 0 (0) n (%)
- Subjects who experienced drug-related adverse events: Flushing (Adverse events; [16]): 2 (33) n (%)
- Subjects who experienced drug-related adverse events: Nasal congestion (Adverse events; [16]): 2 (33) n (%)
- Subjects who experienced drug-related adverse events: Nausea (Adverse events; [16]): 1 (17) n (%)
- Subjects who experienced drug-related (probably or possibly) adverse events: Headache (Adverse events; [17]): 4 (67) n (%)
- Subjects who experienced drug-related adverse events: Abdominal discomfort (Adverse events; [17]): 1 (17) n (%)
- Subjects who experienced drug-related adverse events: Back pain (Adverse events; [17]): 0 (0) n (%)
- Subjects who experienced drug-related adverse events: Flushing (Adverse events; [17]): 1 (17) n (%)
- Subjects who experienced drug-related adverse events: Nasal congestion (Adverse events; [17]): 1 (17) n (%)
- Subjects who experienced drug-related adverse events: Nausea (Adverse events; [17]): 0 (0) n (%)
- Effect on exercise performance (baseline to day 5) (Exercise stress test; all dosing cohorts, 5 days): did not improve in any of the dosing cohorts
- Maximal VO2 at maximum exercise effort, follow-up measurement (Exercise stress test; udenafil 37.5 mg BID, N=6): 28.8 ± 8.1 mL/min/kg
- VO2 at anaerobic threshold, follow-up measurement (Exercise stress test; udenafil 37.5 mg BID, N=6): 18.1 ± 3.0 mL/min/kg
- Maximal VO2 at maximum exercise effort, follow-up measurement (Exercise stress test; udenafil 37.5 mg QD, N=5): 24.7 ± 6.7 mL/min/kg
- VO2 at anaerobic threshold, follow-up measurement (Exercise stress test; udenafil 37.5 mg QD, N=5): 16.3 ± 2.0 mL/min/kg
- Maximal VO2 at maximum exercise effort, follow-up measurement (Exercise stress test; udenafil 125 mg QD, N=6): 28.6 ± 3.8 mL/min/kg
- VO2 at anaerobic threshold, follow-up measurement (Exercise stress test; udenafil 125 mg QD, N=6): 20.0 ± 3.2 mL/min/kg
- Blood pool MPI, follow-up measurement ([3]; all udenafil subjects, N=28): 0.52±0.17
- Tissue Doppler MPI, follow-up measurement ([3]; all udenafil subjects, N=28): 0.71±0.20
- Blood pool MPI, follow-up measurement ([3]; udenafil 37.5 mg BID, N=6): 0.49±0.087
- Tissue Doppler MPI, follow-up measurement ([3]; udenafil 37.5 mg BID, N=6): 0.73±0.23
- Blood pool MPI, follow-up measurement ([3]; udenafil 37.5 mg QD, N=5): 0.50±0.19
- Tissue Doppler MPI, follow-up measurement ([3]; udenafil 37.5 mg QD, N=5): 0.64±0.21
- Blood pool MPI, follow-up measurement ([3]; udenafil 125 mg QD, N=5): 0.70±0.20
- Tissue Doppler MPI, follow-up measurement ([3]; udenafil 125 mg QD, N=5): 0.82±0.27
- Blood pool MPI, difference FU – BL ([3]; all udenafil subjects, N=27): −0.059±0.13
- Blood pool MPI, difference FU – BL ([3]; udenafil 37.5 mg BID, N=6): −0.003±0.10
- Blood pool MPI, difference FU – BL ([3]; udenafil 37.5 mg QD, N=5): −0.052±0.17
- Blood pool MPI, difference FU – BL ([3]; udenafil 125 mg QD, N=5): −0.054±0.18
- Effect on lnRHI and AI (baseline to day 5) ([4]; all dosing cohorts, 5 days): no discernible differences between paired baseline and follow-up measures of lnRHI or AI in any dosing cohort
- Augmentation Index adjusted to HR 75, follow-up measurement ([4]; all udenafil subjects, N=28): −2.18±13.91
- Natural log of Reactive Hyperemic Index, follow-up measurement ([4]; all udenafil subjects, N=28): 0.49±0.28
- Augmentation Index adjusted to HR 75, follow-up measurement ([4]; udenafil 37.5 mg BID, N=6): 2.89±7.11
- Natural log of Reactive Hyperemic Index, follow-up measurement ([4]; udenafil 37.5 mg BID, N=6): 0.53±0.29
- Augmentation Index adjusted to HR 75, follow-up measurement ([4]; udenafil 37.5 mg QD, N=6): −0.62±23.82
- Natural log of Reactive Hyperemic Index, follow-up measurement ([4]; udenafil 37.5 mg QD, N=6): 0.51±0.26
- Augmentation Index adjusted to HR 75, follow-up measurement ([4]; udenafil 125 mg QD, N=6): 1.90±8.65
- Natural log of Reactive Hyperemic Index, follow-up measurement ([4]; udenafil 125 mg QD, N=6): 0.52±0.34
- Natural log of Reactive Hyperemic Index, difference FU – BL ([4]; all udenafil subjects, N=27): −0.02±0.30
- Natural log of Reactive Hyperemic Index, difference FU – BL ([4]; udenafil 37.5 mg BID, N=6): −0.07±0.17
- Natural log of Reactive Hyperemic Index, difference FU – BL ([4]; udenafil 37.5 mg QD, N=6): 0.03±0.47
- Natural log of Reactive Hyperemic Index, difference FU – BL ([4]; udenafil 125 mg QD, N=6): −0.10±0.38
- Udenafil terminal half-life [5]: ~16 h
- Dose dependence of oral clearance (CL/F) ([2]; across the five dosing cohorts): decreased with increasing dose
- Cmax ([2]; human, plasma, po, 37.5 mg, Udenafil Cmax, oral udenafil 37.5 mg bid for five days, mean (%CV), N=6): 152 ng/mL
- Effect of gender on dose-normalized Cmax and Cavg ([2]; male (N=17) vs female (N=13), oral udenafil 5 days): not different for the male and female patients
- Fold increase of mean udenafil AUC0−τ with dose [2, 18]: 4 fold
- Fold increase of mean udenafil Cmax with dose [2, 18]: 4.6 fold
- Udenafil CL/F (oral clearance) [2, 10]: 39.9 (36) L/h
- Udenafil CL/F (oral clearance) [2, 11]: 53.3 (40) L/h
- Udenafil CL/F (oral clearance) [2, 12]: 43.3 (39) L/h
